Measured values published in patent US20230085307A1, “PYRIDAZINONE COMPOUND AND HERBICIDE” (NISSAN CHEMICAL CORPORATION, priority 2019, published 2023).

Experiments:
windgrass = assay: Test Example 4: herbicidal effect by soil treatment (Table 19, symbol L); type: in vivo, windgrass (Apera spica-venti); conditions: AAH 320 g/ha
Procedure, shortened: (§1)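 Scoring uses the grading scale of an earlier test, three weeks post-application. Treatment consists of spraying a diluted emulsion formulation across the surface of sterilized diluvial soil in which seeds are buried near 1.5 cm deep; boxes are kept in a greenhouse between 25° C. and 30° C.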

late watergrass [1] = assay: Test Example 2: herbicidal activity, application during weed generation under submerged conditions (Table 17, symbol A); type: in vivo, late watergrass (Echinochloa oryzicola); conditions: AAH 320 g/ha; application during weed generation, submerged conditions
Procedure, shortened: (§2)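 3-wk visual-criteria score after one water-surface dose. Emulsion formulation, water-diluted to set rate; applied at 1–2 leaf stage; alluvial soil, 4 cm standing water; seeds co-sown; greenhouse 25–30° C.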

Japanese bulrush = assay: Test Example 1: herbicidal activity, application before weed generation under submerged conditions (Table 16, symbol B); type: in vivo, Japanese bulrush (Schoenoplectus juncoides); conditions: 320 g/ha applied herbicide
Procedure, shortened: (§3)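 Submerged Wagner pots (alluvial soil, 4 cm water) sown with weed seeds and planted with 2.5-leaf rice seedlings; emulsifiable concentrate diluted in water applied to water surface on sowing day. Held in greenhouse at 25-30 °C; injury scored 0-5 by herbicidal rate after three weeks.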

Chinese sprangletop = assay: Test Example 3: herbicidal effect by foliage application, Wagner pot (Table 18, symbol D); type: in vivo, chinese sprangletop (Leptochloa chinensis); conditions: 320 g/ha
Procedure, shortened: (§4)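 Plants were sown in alluvial soil held under 0.1–0.5 cm standing water and grown 14 days in a greenhouse at 25–30 °C. An emulsifiable formulation, water-diluted to the set dose, was then sprayed onto the foliage, and effects were scored three weeks later using previously defined criteria.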

late watergrass [2] = assay: Test Example 1: herbicidal activity, application before weed generation under submerged conditions (Table 16, symbol A); type: in vivo, late watergrass (Echinochloa oryzicola); conditions: 320 g/ha applied herbicide
Procedure, shortened: as §3

green foxtail = assay: Test Example 5: herbicidal effect by foliage application, plastic box (Table 20, symbol G); type: in vivo, green foxtail (Setaria viridis); conditions: foliage application, AAH 320 g/ha, three weeks after application
Procedure, shortened: (§5)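 Post-emergence foliar test in sterilized diluvial soil. Compound applied as water-diluted emulsion at a predetermined rate to 14-day-old plants; evaluation at three weeks.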

rice flat sedge = assay: Test Example 3: herbicidal effect by foliage application, Wagner pot (Table 18, symbol E); type: in vivo, rice flat sedge (Cyperus iria); conditions: 320 g/ha
Procedure, shortened: as §4

blackgrass = assay: Test Example 5: herbicidal effect by foliage application, plastic box (Table 20, symbol J); type: in vivo, blackgrass (Alopecurus myosuroides); conditions: foliage application, AAH 320 g/ha, three weeks after application
Procedure, shortened: as §5

Italian ryegrass = assay: Test Example 4: herbicidal effect by soil treatment (Table 19, symbol K); type: in vivo, Italian ryegrass (Lolium multiflorum); conditions: AAH 320 g/ha
Procedure, shortened: as §1

oval-leafed pondweed = assay: Test Example 2: herbicidal activity, application during weed generation under submerged conditions (Table 17, symbol C); type: in vivo, oval-leafed pondweed (Monochoria vaginalis); conditions: AAH 320 g/ha; application during weed generation, submerged conditions
Procedure, shortened: as §2

wild oat = assay: Test Example 5: herbicidal effect by foliage application, plastic box (Table 20, symbol I); type: in vivo, wild oat (Avena fatua); conditions: foliage application, AAH 320 g/ha, three weeks after application
Procedure, shortened: as §5

barnyard grass [3] = assay: Test Example 3: herbicidal effect by foliage application, Wagner pot (Table 18, symbol H); type: in vivo, barnyard grass (Echinochloa crus-galli); conditions: 320 g/ha
Procedure, shortened: as §4

persian speedwell = assay: Test Example 5: herbicidal effect by foliage application, plastic box (Table 20, symbol R); type: in vivo, Persian speedwell (Veronica persica); conditions: foliage application, AAH 320 g/ha, three weeks after application
Procedure, shortened: as §5

redroot pigweed = assay: Test Example 4: herbicidal effect by soil treatment (Table 19, symbol N); type: in vivo, redroot pigweed (Amaranthus retroflexus); conditions: AAH 320 g/ha
Procedure, shortened: as §1

barnyard grass [4] = assay: Test Example 5: herbicidal effect by foliage application, plastic box (Table 20, symbol H); type: in vivo, barnyard grass (Echinochloa crus-galli); conditions: foliage application, AAH 320 g/ha, three weeks after application
Procedure, shortened: as §5

southern crabgrass = assay: Test Example 5: herbicidal effect by foliage application, plastic box (Table 20, symbol F); type: in vivo, southern crabgrass (Digitaria ciliaris); conditions: foliage application, AAH 320 g/ha, three weeks after application
Procedure, shortened: as §5

Row | Structure (SMILES) | L: windgrass, herbicidal effect rating (windgrass) | herbicidal effect rating, A: late watergrass (late watergrass [1]) | Herbicidal effect on B: Japanese bulrush (grade 0-5) (Japanese bulrush) | herbicidal effect on D (Chinese sprangletop), rating 0-5 (Chinese sprangletop) | Herbicidal effect on A: late watergrass (grade 0-5) (late watergrass [2]) | G: green foxtail, herbicidal effect (green foxtail) | herbicidal effect on E (rice flat sedge), rating 0-5 (rice flat sedge) | J: blackgrass, herbicidal effect (blackgrass) | K: Italian ryegrass, herbicidal effect rating (Italian ryegrass) | herbicidal effect rating, C: oval-leafed pondweed (oval-leafed pondweed) | I: wild oat, herbicidal effect (wild oat) | herbicidal effect on H (barnyard grass), rating 0-5 (barnyard grass [3]) | R: persian speedwell, herbicidal effect (persian speedwell) | N: redroot pigweed, herbicidal effect rating (redroot pigweed) | H: barnyard grass, herbicidal effect (barnyard grass [4]) | F: southern crabgrass, herbicidal effect (southern crabgrass)
1 | CSCCOc1ccc(-c2sc3ccccc3c2-c2c(O)c(C)nn(C)c2=O)cc1 [1-141] | 3 (Herbicidal rate of 40% or more and less than 70%) | 0 (Herbicidal rate of 5% or less (almost no effect)) | 0 (Herbicidal rate of 5% or less (almost no effect)) | 3 (Herbicidal rate of 40% or more and less than 70%) | 3 (Herbicidal rate of 40% or more and less than 70%) | 5 (Herbicidal rate of 90% or more (almost completely withered)) | 5 (Herbicidal rate of 90% or more (almost completely withered)) | 5 (Herbicidal rate of 90% or more (almost completely withered)) | 5 (Herbicidal rate of 90% or more (almost completely withered)) | 0 (Herbicidal rate of 5% or less (almost no effect)) | 5 (Herbicidal rate of 90% or more (almost completely withered)) | 5 (Herbicidal rate of 90% or more (almost completely withered)) | 5 (Herbicidal rate of 90% or more (almost completely withered)) | 5 (Herbicidal rate of 90% or more (almost completely withered)) | 5 (Herbicidal rate of 90% or more (almost completely withered)) | 5 (Herbicidal rate of 90% or more (almost completely withered))
2 | Cc1nn(C)c(=O)c(-c2c(-c3ccc(OCC4CC4)cc3)sc3ccccc23)c1O [1-142] | 0 (Herbicidal rate of 5% or less (almost no effect)) | 0 (Herbicidal rate of 5% or less (almost no effect)) | 5 (Herbicidal rate of 90% or more (almost completely withered)) | 1 (Herbicidal rate of 5% or more and less than 20%) | 3 (Herbicidal rate of 40% or more and less than 70%) | 2 (Herbicidal rate of 20% or more and less than 40%) | 5 (Herbicidal rate of 90% or more (almost completely withered)) | 0 (Herbicidal rate of 5% or less (almost no effect)) | 0 (Herbicidal rate of 5% or less (almost no effect)) | 0 (Herbicidal rate of 5% or less (almost no effect)) | 0 (Herbicidal rate of 5% or less (almost no effect)) | 3 (Herbicidal rate of 40% or more and less than 70%) | 5 (Herbicidal rate of 90% or more (almost completely withered)) | 4 (Herbicidal rate of 70% or more and less than 90%) | 3 (Herbicidal rate of 40% or more and less than 70%) | 1 (Herbicidal rate of 5% or more and less than 20%)
